Experimental data taken from paper PMC9705739, “Canagliflozin, characterized as a HDAC6 inhibitor, inhibits gastric cancer metastasis” (Frontiers in Oncology, 2022).

Target: T1, HDAC6 (Homo sapiens, UniProt Q9UBN7)
T1 sequence (Q9UBN7 1-1215): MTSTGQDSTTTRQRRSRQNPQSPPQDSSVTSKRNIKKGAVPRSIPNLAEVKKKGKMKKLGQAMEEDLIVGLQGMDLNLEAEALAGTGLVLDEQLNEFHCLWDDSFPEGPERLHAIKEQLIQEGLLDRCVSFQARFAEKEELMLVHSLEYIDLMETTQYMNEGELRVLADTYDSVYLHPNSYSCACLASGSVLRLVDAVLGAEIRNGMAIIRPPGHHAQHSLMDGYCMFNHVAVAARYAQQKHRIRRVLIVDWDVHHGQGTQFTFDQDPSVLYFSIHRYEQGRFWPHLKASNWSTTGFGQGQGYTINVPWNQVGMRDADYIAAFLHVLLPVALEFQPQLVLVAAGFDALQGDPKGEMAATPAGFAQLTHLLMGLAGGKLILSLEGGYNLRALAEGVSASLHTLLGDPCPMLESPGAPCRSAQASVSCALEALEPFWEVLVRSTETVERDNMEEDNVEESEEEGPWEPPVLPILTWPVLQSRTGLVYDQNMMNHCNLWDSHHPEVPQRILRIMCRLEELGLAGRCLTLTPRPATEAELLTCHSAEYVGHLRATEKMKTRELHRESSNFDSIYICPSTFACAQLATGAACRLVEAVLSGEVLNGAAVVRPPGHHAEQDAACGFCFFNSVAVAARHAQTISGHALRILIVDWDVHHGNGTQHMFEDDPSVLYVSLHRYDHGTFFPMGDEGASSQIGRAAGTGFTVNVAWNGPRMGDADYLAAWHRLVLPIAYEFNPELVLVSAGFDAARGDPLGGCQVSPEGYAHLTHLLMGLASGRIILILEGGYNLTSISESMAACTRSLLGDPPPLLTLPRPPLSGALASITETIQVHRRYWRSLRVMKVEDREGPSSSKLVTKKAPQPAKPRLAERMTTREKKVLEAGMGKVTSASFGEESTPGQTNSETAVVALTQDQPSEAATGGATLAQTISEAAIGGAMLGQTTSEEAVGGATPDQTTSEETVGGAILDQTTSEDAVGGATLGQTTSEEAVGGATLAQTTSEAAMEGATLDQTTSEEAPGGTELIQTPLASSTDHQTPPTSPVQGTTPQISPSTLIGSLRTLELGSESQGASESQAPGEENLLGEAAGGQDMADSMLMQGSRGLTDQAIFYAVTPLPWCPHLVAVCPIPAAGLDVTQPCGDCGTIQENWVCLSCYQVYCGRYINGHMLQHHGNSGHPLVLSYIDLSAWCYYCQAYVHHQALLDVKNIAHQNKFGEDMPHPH
Assay: SPR (Biacore T200, immobilized HDAC6); also enzymatic inhibition IC50 […] and CETSA in MGC-803 cells
Assay type: binding

Structure (SMILES): Cc1ccc([C@@H]2O[C@H](CO)[C@@H](O)[C@H](O)[C@H]2O)cc1Cc1ccc(-c2ccc(F)cc2)s1 [canagliflozin]
- Kd: 859 nM
